One assay addresses T1, hemoglobin (Homo sapiens, UniProt P68871+P69905).
T1 construct: from tissue; host or cells: outdated donated human red blood cells (hemolysate supernatant, dialysed against DPBS)
As to the kind of experiment: Hemoglobin oxygen-binding assay (oxyHb %, plate format). The format is biochemical. Conditions: effector to hemoglobin tetramer 6 to 1 (mol/mol). Here is the method: Test compounds (0.75 μL, 10 mM in DMSO) were added to the central area of two 384 deep well plates forming compound plates. DPBS was used as the solvent for myo-inositol hexaphosphate (IHP) and N-ethylmaleimide (NEM) (10 mM). To prevent oxidation of hemoglobin during the experiment, glucose-6-phosphate (0.4 mg/mL), glucose-6-phosphate dehydrogenase (1.0 U/mL), nicotinamide adenine dinucleotide phosphate (NADP, 0.05 mg/mL), ferredoxin (0.01 mg/mL), ferredoxin-NADP reductase (0.01 U/mL) and catalase (2×10^3 U/mL) were added to hemoglobin to produce the Hayashi reducing system, which is described in detail in Hayashi et al., Biochemica et Biophysica Acta, 1973, 310, 309-316. […]
The alteration of hemoglobin's oxygen-binding affinity by the test compounds binding to hemoglobin was evaluated in an environment where the fractional oxygen pressure (FO2) could be precisely measured and controlled. […] To confirm the allosteric effect of the test compounds, ODC of hemoglobin was measured in the presence and absence of each compound. […]
The ability of small molecules to alter the oxygen affinity of hemoglobin was determined by measuring the fraction of oxygenated hemoglobin (oxyHb %) and oxidized hemoglobin (metHb %) using spectrophotometry under three (high, medium, and low oxyHb saturation) conditions. […]

Another assay deals with whole blood. As to the kind of experiment: ODC (P50) of whole blood. Conditions: 6:1 molar ratio of compound to hemoglobin (120 μM).
Another assay deals with red blood cells. As to the kind of experiment: ODC of washed red blood cells in Hemox solution. The format is cell-based, human. Particulars: for P50 of red blood cells: mixed 1 h at 37° C. An excerpt:
For the reduction of P50, less amount of 1 was needed, and the reaction time of 1 with hemoglobin was faster than NEM and 5HMF.

In assay [1] the test system is red blood cells from sickle cell disease patients (SRBCs). Particulars: reported value; cited from earlier work.

T1 sequence (P68871 2-147 limits assumed): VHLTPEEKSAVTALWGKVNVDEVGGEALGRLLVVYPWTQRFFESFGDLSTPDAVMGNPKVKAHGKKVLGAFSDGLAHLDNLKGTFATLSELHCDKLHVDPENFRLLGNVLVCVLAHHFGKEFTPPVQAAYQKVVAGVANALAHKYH
T1 sequence (P69905 2-142 limits assumed): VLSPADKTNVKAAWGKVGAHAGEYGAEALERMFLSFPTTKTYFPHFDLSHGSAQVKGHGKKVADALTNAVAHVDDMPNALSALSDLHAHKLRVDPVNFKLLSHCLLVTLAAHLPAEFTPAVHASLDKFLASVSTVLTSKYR
Description for whole blood: The ODC of hemoglobin was measured with a HEMOX analyzer (TCS Scientific Corporation) at 37° C. For experiments with purified hemoglobin, hemoglobin (20 μM as tetramer) was dissolved in DPBS and antifoam (0.2 vol %, Catalog No. AFA-25, TCS Scientific Corporation) was added to prevent foaming of the sample. Compounds were prepared in DMSO stock solutions then added to hemoglobin. […] For experiments with RBCs, blood was drawn from volunteers into EDTA tubes. The blood was centrifuged for 15 min at 3,000 rpm at 4° C. The supernatant was discarded, and RBCs were washed three times with DPBS, pH 7.4 by dilution to 50% hematocrit.

`O=P(O)(O)O[C@H]1[C@H](OP(=O)(O)O)[C@@H](OP(=O)(O)O)[C@H](OP(=O)(O)O)[C@@H](OP(=O)(O)O)[C@H]1OP(=O)(O)O` [IHP, myo-inositol hexaphosphate]: the “change of oxyHb %” value at hemoglobin is “decrease”.
On to `CCN1C(=O)C=CC1=O` [NEM, N-ethylmaleimide], for which the “P50 of whole blood” value in the assay with whole blood is on record as 20±1.1 Torr. In addition, the “P50 of red blood cells” value with red blood cells (400 μM) amounted to 8 Torr. The “change of oxyHb %” value at hemoglobin was “increase”.
On to `O=Cc1ccc(CO)o1` [Compound 5-HMF, 5-(Hydroxymethyl)furfural], for which, in assay [1], the “concentration required to reduce sickling of hypoxic SS RBCs by nearly 90%” value is recorded as 5 mM. Also, in the assay on whole blood, the “P50 of whole blood” value turned out to be 26±0.5 Torr. In the assay with red blood cells (2 mM), the “P50 of red blood cells” value turned out to be 9 Torr. Further, in the assay with red blood cells (Compound 1 at 120 μM (6:1 to Hb tetramer), HEMOX solution, 5 vol % DMSO, 10 min at 37° C.), the “P50 of RBCs” value came to 27±0.5 Torr.

Source of the values: patent US10758569B2, “Heteroaryl disulfide compounds as allosteric effectors for increasing the oxygen-binding affinity of hemoglobin” (The General Hospital Corporation, priority 2014, dated 2020).
